The results in this text go back to patent US9408828B2, “(+)-3′-angeloyloxy-4′-keto-3′,4′-dihydroseselin for treating inflammation” (Hong Kong Baptist University, priority 2014, dated 2016).

One data set concerns RAW-Blue cells. Nature of the data set: Cell viability (MTT) assay. In kind it is cell-based, murine. The following applies: 24 hours. Here is the method:
Cells are cultured for 24 hours in the presence of Pd-Ib at the concentrations indicated, from 1.25-100 μg/mL. Cell viability is assessed using MTT assay. Data are derived from three independent experiments and presented as mean±SEM. “con” stands for the vehicle control group.
Cells (5×10^4) are cultured in 96-well plates for 24 hours. Then cells are cultured with various concentrations of Pd-Ib (1.25, 2.5, 5, 10, 20, 40, 80, 100 μg/mL) for 24 hours. After that, 10 μL of 5 mg/mL MTT is added to each well, and the cells are cultured in the dark for 3 hours. The medium is then discarded, and 100 μL of dimethyl sulfoxide (DMSO) is added into each well. After 15 min incubation, the optical density at 570 nm is read by using a micro-plate reader to determine the cell viability.

For a further data set, the system named is NF-κB p65. Put plainly: Immunofluorescence staining of NF-κB nuclear translocation. Format: cell-based, murine. The following applies: 5-20 μg/mL pretreatment 2 hours, LPS 1 μg/mL 20 hours. Here is the method: Data are derived from three independent experiments. Original magnification, 40×.
Raw-Blue cells are cultured (20×10^4 cells/well) on glass coverslips and incubated for 24 hours. Cells are pretreated with various concentrations (5-20 μg/mL) of Pd-Ib for 2 hours. Then treated with LPS (1 μg/mL) for 20 hours. Subsequently, the coverslips are rinsed twice with PBS, and cells are fixed in 4% paraformaldehyde (PFA) in PBS at room temperature for 15 minutes. Cellular and nuclear membranes of the macrophages are permeabilized by treatment with 3% Triton X-100 in PBS for 15 minutes. After being blocked with 3% bovine serum albumin (BSA) in PBS for 1 hour, the cells is incubated with primary antibody in 3% BSA/PBS (1:500 dilution) at 4° C. overnight. After washing with PBS, the cells are incubated with the red-conjugated secondary antibody (1:500 dilution) in 3% BSA/PBS at room temperature for 1 hour and finally washed again for three time with PBS. Then, counter-staining is performed with DAPI (1:1,000 dilution) in 3% BSA/PBS nucleus with for 10 minutes. The cells are washed for three times with PBS, and then anti-fade mounting medium is added. Samples are observed under a fluorescence microscope.

Another data set relates to TNF-α. Put plainly: Real-time PCR of TNF-α mRNA in LPS-stimulated RAW-Blue cells. The settings on record: LPS 1 μg/mL, 5, 10, 20 μg/mL, 20 hours. In kind it is cell-based, murine. The protocol: (§1) After macrophages are treated with 1 μg/mL of LPS in absence or presence various concentrations of Pd-Ib (5, 10, 20 μg/mL) for 20 hours, the mRNA levels of iNOS (A), TNF-α (B) and IL-1β (C) are determined by real time PCR, while the production of NO (D) is determined by Griess reagent. Data are derived from three independent experiments and presented as mean±SEM, “con” stands for the vehicle control group. ^#Compared with control group. *P<0.05, **P<0.01 and ***P<0.001 are compared with LPS-alone group.
(§2) Raw-Blue cells are plated at 20×10^5 cells/well in 12-well plate. After 24 hours of incubation, cells are pretreated with various concentrations (5-20 μg/mL) of Pd-Ib for 2 hours, followed by co-culturing with LPS (1 μg/mL) for 20 hours. Total RNA of Raw-Blue cells is extracted by Trizol reagent. Two micrograms (2 μg) of total RNA are reverse-transcribed with RT master mix to obtain cDNA. Real-time PCR is performed in a ViiA7 real-time PCR instrument (Applied Biosystems, Life Technologies, CA, USA) with the SYBR Green kit. A melting curve analysis is carried out after amplification to verify the accuracy of the amplicon. The comparative cycle of threshold (ΔΔCT) method of relative quantification is used to determine the fold-change in expression. Primer sequences for mRNA analysis of IL-1β, TNF-α, iNOS and β-Actin are described in Table 1.
(In general: Real-time PCR tracks product formation cycle by cycle.)

For the next data set, the system named is IL-1β. Put plainly: Real-time PCR of IL-1β mRNA in LPS-stimulated RAW-Blue cells. In kind it is cell-based, murine. The settings on record: LPS 1 μg/mL, 5, 10, 20 μg/mL, 20 hours. The protocol: as §1, §2
Another data set concerns Myeloperoxidase (MPO). Put plainly: Neutrophil infiltration in colon tissue (MPO assay). Format: in vivo, C57BL/6 mice. The settings on record: DSS-induced colitic mice, Pd-Ib treatment groups. Here is the method: Myeloperoxidase (MPO) is an enzyme mainly released by neutrophil, and its activity is directly associated with the severity of inflammation in a given tissue. In this example, MPO activity is measured as described in our previous study. Briefly, the colon tissues kept at −80° C. are weighed and homogenized in 0.5% hexadecyltrimethylammonium bromide 1 mL per 100 mg of colon tissue. The homogenates are centrifuged at 19 000 rpm at 4° C. for 15 min. Aliquots of 80 iL supernatant are mixed with 120 μL potassium phosphate buffer (50 mmol, pH 6.0) with 0.0005% o-dianisidine dihydrochloride and 0.1% hydrogen peroxide. Changes in optical density are measured at 460 nm at room temperature (25° C.). MPO activity is calculated from the rate of optical density changes and one unit of MPO activity is defined as the amount of enzyme present that produced a change in optical density of […] at 25° C. in the final reaction volume. The results are normalized to the wet weight of colon tissue and quantified as units/mg tissue.
Colitis is induced in all groups except the control group. Pd-Ib and sulfasalazine are administered to mice from day 6 to day 12. On day 13, the mice are sacrificed, and MPO activity is determined in colon homogenates. Data are expressed as mean±SEM, n=8 (*p<0.05, **p<0.01, ***p<0.001, compared with DSS model group).

For the next data set, the system named is IFN-γ. Nature of the data set: ELISA of IFN-γ in colon tissue, DSS-induced colitis. Format: in vivo, C57BL/6 mice. The following applies: compared with the DSS treatment group. The protocol:
Colon levels of cytokines are assayed using commercially available ELISA kits. Briefly, colon samples are homogenized in phosphate buffer containing 0.05% Tween-20, 0.1 mM phenylmethylsulfonyl fluoride, 0.1 mM benzethonium chloride, 10 mM EDTA, and 20 IU aprotinin A. The homogenates are centrifuged at 16000 g at 4° C. for 15 min, and the supernatants are collected for the determination of levels of the cytokines, IL-6, IL-4, TNF-α, and IFN-γ, according to the manufacturer's protocols. The amount of protein in each sample is measured by the Bradford method, using bovine serum albumin as a standard. The levels of each cytokine are evaluated in each sample and expressed in […].
Colitis is induced in all groups except the control group. Pd-Ib and sulfasalazine are administered to mice from day 6 to day 12. On day 13, the mice are sacrificed, Data are expressed as mean±SEM, n=8 (*p<0.05, **p<0.01, ***p<0.001, compared with DSS model group).
For orientation: ELISA stands for enzyme-linked immunosorbent assay.

Turning to `C/C=C(\C)C(=O)OC1C(=O)c2c(ccc3ccc(=O)oc23)OC1(C)C` (single isomer, unassigned; (+)) [Pd-Ib, (+)-3′-Angeloyloxy-4′-keto-3′,4′-dihydroseselin], in the data set with RAW-Blue cells (1.56 to 20 μg/mL), the cytotoxic effect result is reported as “does not exhibit cytotoxic effect”. Further, the cell viability entry in the data set with RAW-Blue cells (40, 80, and 100 μg/mL) is “cell viability is reduced”. Moreover, in the data set with NF-κB p65, the p65 nuclear translocation result is “significantly inhibits the p65 nuclear translocation”. Moreover, the “mRNA expression of TNF-α” value in the data set on TNF-α is “inhibit the mRNA expressions of TNF-α and IL-1β in a dose-dependent manner”. The “mRNA expression of IL-1β” value in the data set on IL-1β is “inhibit the mRNA expressions of TNF-α and IL-1β in a dose-dependent manner”. In addition, in the data set with Myeloperoxidase (MPO), the “MPO activity in colon” value is on record as “suppresses MPO activity significantly”. Also, the “production of IFN-γ in colon tissue” value with IFN-γ was “greatly reduces the production”.
